From patent US9913809B1, “Anti-cancer activity of (E)-1-(3′,4′-dimethoxyphenyl) butadiene” (SAMI LABS LIMITED, priority 2016, dated 2018)
In brackets after ≈: the same amount, converted by molar mass.

Tests used:
[1] = system: PANC-1 cancer cell line (pancreatic carcinoma cells); experiment: MTT cytotoxicity assay, PANC-1; type: cell-based; details: Homo sapiens, PANC-1, pancreatic carcinoma
Method: (§1) Human pancreatic PANC-1 cancer cell line (pancreatic carcinoma cells), human prostate DU145 cancer cell line (prostate carcinoma), human ovarian cancer SKOV3 (ovarian carcinoma) cell line, colon Caco-2 cancer cell line (Colon Carcinoma), lung A549 cancer cell line (Lung carcinoma), lymphoblastoma K562 cancer cell line, melanoma B16F1 cancer cell line and colorectal HCT cancer cell line (Colorectal carcinoma), were grown and cultured using standard protocols known in the art. The cancer cell lines were treated with DMPBD in varying concentrations for measuring cytotoxicity. The estimation of the viability assay of the cells was done by the MTT (3-(4,5-dimethylthiazol-2-yl)-2,5-diphenyltetrazolium bromide) colorimetric assay. The MTT Assay measures the cell proliferation rate and conversely, when metabolic events lead to apoptosis or necrosis, the reduction in cell viability. The data is analyzed by plotting cell number versus absorbance allowing the quantification of changes in cell proliferation. The rate of tetrazolium reduction is proportional to the rate of cell proliferation. […]
(§2) The MTT Assay as performed was adapted from (1) Tim Mosmann. […] A tetrazolium-based colorimetric MTT assay to quantitate human monocyte mediated cytotoxicity against leukemic cells from cell lines and patients with acute myeloid leukemia. […]

[2] = system: DU145 cancer cell line (prostate carcinoma); experiment: MTT cytotoxicity assay, DU145; type: cell-based; details: Homo sapiens, DU 145, prostate carcinoma
Method: as §1, §2

[3] = system: SKOV3 (ovarian carcinoma) cell line; experiment: MTT cytotoxicity assay, SKOV3; type: cell-based; details: Homo sapiens, SK-OV-3
Method: as §1, §2

[4] = system: Caco-2 cancer cell line (Colon Carcinoma); experiment: MTT cytotoxicity assay, Caco-2; type: cell-based; details: Homo sapiens, Caco-2, colon carcinoma
Method: as §1, §2

[5] = system: A549 cancer cell line (Lung carcinoma); experiment: MTT cytotoxicity assay, A549; type: cell-based; details: Homo sapiens
Method: as §1, §2

[6] = system: lymphoblastoma K562 cancer cell line; experiment: MTT cytotoxicity assay, K562; type: cell-based; details: Homo sapiens
Method: as §1, §2

[7] = system: melanoma B16F1 cancer cell line; experiment: MTT cytotoxicity assay, B16F1; type: cell-based, human; details: Mus musculus, B16-F1
Method: as §1, §2

[8] = system: HCT cancer cell line (Colorectal carcinoma); experiment: MTT cytotoxicity assay, HCT; type: cell-based; details: Homo sapiens
Method: as §1, §2

[9] = system: P-selectin (CD 62P); experiment: Flow cytometry, P-selectin expression in LNCap prostate carcinoma cells; type: cell-based, human; details: DMPBD 70 μg/ml, TNF-alpha and IL-1beta 10 ng/ml, 72 hours
[10] = system: L-selectin (CD 62L); experiment: Flow cytometry, L-selectin expression in LNCap prostate carcinoma cells; type: cell-based, human; details: DMPBD 20 μg/ml, TNF-alpha and IL-1beta 10 ng/ml, 72 hours
[11] = system: P-selectin (CD 62P); experiment: Flow cytometry, P-selectin expression in K562 lymphoblastoma cells; type: cell-based, human; details: TNF-alpha and IL-1beta 10 ng/ml, 72 hours
[12] = system: L-selectin (CD 62L); experiment: Flow cytometry, L-selectin expression in K562 lymphoblastoma cells; type: cell-based, human; details: DMPBD 20 μg/ml, TNF-alpha and IL-1beta 10 ng/ml, 72 hours
[13] = system: P-selectin (CD 62P); experiment: Flow cytometry, P-selectin expression in HCT colorectal carcinoma cells; type: cell-based, human; details: TNF-alpha and IL-1beta 10 ng/ml, 72 hours
[14] = system: L-selectin (CD 62L); experiment: Flow cytometry, L-selectin expression in HCT colorectal carcinoma cells; type: cell-based, human; details: TNF-alpha and IL-1beta 10 ng/ml, 72 hours
[15] = system: P-selectin (CD 62P); experiment: Flow cytometry, P-selectin expression in pancreatic carcinoma cells; type: cell-based, human; details: flow cytometric studies
[16] = system: E-selectin (CD 62E); experiment: Flow cytometry, E-selectin expression in pancreatic carcinoma cells; type: cell-based, human; details: flow cytometric studies
[17] = system: L-selectin (CD 62L); experiment: Flow cytometry, L-selectin expression in pancreatic carcinoma cells; type: cell-based, human; details: flow cytometric studies

**Q.** Which results are given for C=C/C=C/c1ccc(OC)c(OC)c1 [DMPBD, (E)-1-(3′, 4′-Dimethoxyphenyl) butadiene]?
**A.** IC50 [1]: 4.2 µg/mL (≈ 22.1 µM); IC50 [2]: 8.6 µg/mL (≈ 45.2 µM); IC50 [3]: 13.5 µg/mL (≈ 71 µM); IC50 [4]: 39.3 µg/mL (≈ 207 µM); IC50 [5]: 30.2 µg/mL (≈ 159 µM); IC50 [6]: 22.5 µg/mL (≈ 118 µM); IC50 [7]: 26.4 µg/mL (≈ 139 µM); IC50 [8]: 25.5 µg/mL (≈ 134 µM); % Reduction of P-selectin expression [9]: 11.1%; % Reduction of L-selectin expression [10]: 7.3%; % Reduction of P-selectin expression ([11]; DMPBD 10 μg/ml): 11.6%; % Reduction of P-selectin expression ([11]; DMPBD 20 μg/ml): 35.4%; % Reduction of L-selectin expression [12]: 30.3%; % Reduction of P-selectin expression ([13]; DMPBD 10 μg/ml): 11.8%; % Reduction of P-selectin expression ([13]; DMPBD 20 μg/ml): 27.8%; % Reduction of L-selectin expression ([14]; DMPBD 10 μg/ml): 11.3%; % Reduction of L-selectin expression ([14]; DMPBD 20 μg/ml): 21.1%; expression of P-selectin [15]: significant fold decrease; expression of E-selectin [16]: significant fold decrease; expression of L-selectin [17]: significant fold decrease
